Source: patent US6204293A, “Inhibitors of protein isoprenyl transferases” (University of Pittsburgh, priority 1998, dated 2001)

Biological target: T1, Rat brain protein farnesyltransferase (Rattus norvegicus, UniProt Q02293+Q04631)
T1 construct: Rat brain protein farnesyltransferase activity is measured; from tissue; host or cells: rat brain
Assay: % inhibition of farnesylation, scintillation proximity assay with biotin-K Ras B fragment
Format: biochemical
Settings: for % inhibition at 1 × 10^-6 M: Table 2; for % inhibition at 1 × 10^-7 M: Table 3; for % inhibition at 1 × 10^-8 M: Table 4
Procedure, shortened: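 Scintillation proximity read-out of farnesylation, using a biotinylated K Ras B fragment (0.1 mM final) in place of biotin-lamin. Enzyme purified from rat brain; results given as % inhibition.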

T1 sequence (Q02293 whole entry, one chain of several): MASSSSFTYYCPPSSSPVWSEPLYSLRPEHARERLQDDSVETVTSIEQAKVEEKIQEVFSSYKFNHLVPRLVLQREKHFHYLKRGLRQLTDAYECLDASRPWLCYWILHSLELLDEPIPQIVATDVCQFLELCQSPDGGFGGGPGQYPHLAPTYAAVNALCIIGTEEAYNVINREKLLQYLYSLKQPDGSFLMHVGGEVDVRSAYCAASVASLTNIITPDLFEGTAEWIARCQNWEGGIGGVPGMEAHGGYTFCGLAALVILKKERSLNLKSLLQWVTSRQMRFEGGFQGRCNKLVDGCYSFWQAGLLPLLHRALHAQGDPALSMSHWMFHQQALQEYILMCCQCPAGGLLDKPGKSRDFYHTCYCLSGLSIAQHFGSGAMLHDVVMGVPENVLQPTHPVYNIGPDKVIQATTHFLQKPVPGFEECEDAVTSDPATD

| Structure (SMILES) | % inhibition at 1 × 10^-6 M [%] | further results |
| --- | --- | --- |
| CSCC[C@H](NC(=O)c1ccc(CN(CCC2CCCCC2)C(=O)N(C)C)cc1-c1ccccc1C)C(=O)O [Example 610] | 94 |  |
| CSCC[C@H](NC(=O)c1ccc(CN(CCC2CCCCC2)S(C)(=O)=O)cc1-c1ccccc1C)C(=O)O [Example 611] |  | % inhibition at 1 × 10^-7 M: 95% |
| CSCC[C@H](NC(=O)c1ccc(CN(CCC2CCCCC2)S(=O)(=O)c2ccccc2)cc1-c1ccccc1C)C(=O)O [Example 612] |  | % inhibition at 1 × 10^-8 M: 96% |
| CSCC[C@H](NC(=O)c1ccc(CN[C@H](C)CC2CCCCC2)cc1-c1ccccc1C)C(=O)O [Example 613] | 97 |  |
| CC[C@H](CC1CCCCC1)NCc1ccc(C(=O)N[C@@H](CCSC)C(=O)O)c(-c2ccccc2C)c1 [Example 614] |  | % inhibition at 1 × 10^-8 M: 92% |
| CCCC[C@H](CC1CCCCC1)NCc1ccc(C(=O)N[C@@H](CCSC)C(=O)O)c(-c2ccccc2C)c1 [Example 615] |  | % inhibition at 1 × 10^-7 M: 94% |
| CSCC[C@H](NC(=O)c1ccc(CNC(CC2CCCCC2)C2CCCCC2)cc1-c1ccccc1C)C(=O)[O-].[Li+] (stereo partly drawn) [Example 616] |  | % inhibition at 1 × 10^-7 M: 95% |
| CSCC[C@H](NC(=O)c1ccc(CN[C@H](CO)CC2CCCCC2)cc1-c1ccccc1C)C(=O)O [Example 617] | 99 |  |
| CSCC[C@H](NC(=O)c1ccc(CN[C@@H](CO)CC2CCCCC2)cc1-c1ccccc1C)C(=O)O [Example 618] |  | % inhibition at 1 × 10^-7 M: 89% |
| C=C[C@H](CC1CCCCC1)NCc1ccc(C(=O)N[C@@H](CCSC)C(=O)O)c(-c2ccccc2C)c1 [Example 619] |  | % inhibition at 1 × 10^-8 M: 95% |
| CCS(=O)(=O)C[C@H](CC1CCCCC1)NCc1ccc(C(=O)N[C@@H](CCSC)C(=O)O)c(-c2ccccc2C)c1 [Example 620] | 98 |  |
| CCS(=O)(=O)C[C@H](CC1CCCCC1)NCc1ccc(C(=O)N[C@@H](CCS(C)(=O)=O)C(=O)O)c(-c2ccccc2C)c1 [Example 621] |  | % inhibition at 1 × 10^-7 M: 98% |
| CSCC[C@H](NC(=O)c1ccc(CN[C@H](CSC(C)(C)C)CC2CCCCC2)cc1-c1ccccc1C)C(=O)O [Example 622] |  | % inhibition at 1 × 10^-7 M: 95% |
| CSCC[C@H](NC(=O)c1ccc(CN[C@H](CSc2ccccc2)CC2CCCCC2)cc1-c1ccccc1C)C(=O)O [Example 623] |  | % inhibition at 1 × 10^-7 M: 96% |
| CSCC[C@H](NC(=O)c1ccc(CNCCS)cc1-c1ccccc1)C(=O)O [Example 626] | 61 |  |
| CSCC[C@H](NC(=O)c1ccc(CNCCSC(C)(C)C)cc1-c1ccccc1)C(=O)O [Example 627] | 85 |  |
| CSCC[C@H](NC(=O)c1ccc(CNCC(O)CO)cc1-c1ccccc1)C(=O)O (stereo partly drawn) [Example 632] | 43 |  |
| CSCCC(CO)NCc1ccc(C(=O)N[C@@H](CCSC)C(=O)O)c(-c2ccccc2)c1 (stereo partly drawn) [Example 633] | 32 |  |
| CSCC[C@H](NC(=O)c1ccc(CNCCN(C(C)C)C(C)C)cc1-c1ccccc1)C(=O)O [Example 636] | 72 |  |
| CSCC[C@H](NC(=O)c1ccc(CNCC(C)(C)CN(C)C)cc1-c1ccccc1)C(=O)O [Example 639] |  | % inhibition at 1 × 10^-5 M (Table 1, 1 × 10^-5 M): 44% |
| CSCC[C@H](NC(=O)c1ccc(CNCCN2CCCC2)cc1-c1ccccc1)C(=O)O [Example 641] | 34 |  |
| CSCC[C@H](NC(=O)c1ccc(CNc2ccccc2F)cc1-c1ccccc1)C(=O)O [Example 642] | 48 |  |
| CSCC[C@H](NC(=O)c1ccc(CNc2ccccc2C(N)=O)cc1-c1ccccc1)C(=O)O [Example 644] | 54 |  |
| CSCC[C@H](NC(=O)c1ccc(CNc2ccccc2Oc2ccccc2)cc1-c1ccccc1)C(=O)O [Example 645] | 37 |  |
